Experimental data taken from patent US20040267028A1, “Preparation and use of pyrrole derivatives for treating obesity” (priority 2001, published 2004).
Structures can show the parent of a compound that is named as a salt.

System: lean overnight fasted rats
Experiment: Fasted-refed acute feeding assay (reduction of food intake)
Format: in vivo, rat
Details: 10 mg/kg p.o., single dose, measured at time points from 30 to 240 minutes
Text: Evaluation of Compound's Efficacy on the Reduction of Food Intake (Suppression of Appetite) in Lean Overnight Fasted Rats
Fasted-Refed Acute Feeding Assay
The purpose of this protocol is to determine the effect of a single dose of an unknown compound on food consumption of lean overnight fasted rats. The fasted-refed rat model is frequently used in the field of obesity to identify compounds with potential for anorectic effects. This animal model has been successfully used in the identification and characterization of the efficacy profile of compounds that are or have been used in the management of body weight in obese humans (see, e.g., Balvet et al., Gen. Pharmacol. 13:293-297, 1982; Grignaschi et al., Br. J. Pharmacol. 127:1190-1194, 1999; McTavish and Heel, Drug 43:713-733, 1992; Rowland et al., Life Sci. 36:2295-2300, 1985). […]
The vehicle test: The rats are grouped based upon their performance on a vehicle test. […] After 1 hour, the spillage is returned to the food jar and the amount of food consumed is determined. […]
The efficacy test: The rats are fasted overnight during the dark phase (total of approx. 16-18 hr). […] Food intake is recorded 30, 60, 90, 180, and 240 minutes post-food return. […] The amount of food consumed is determined for each time point. Difference between treatment group is determined using appropriate statistical analysis.

Cc1c(C(=O)NN2CCCCC2)cc(-c2ccc(Cl)cc2)n1-c1ccccc1Cl [Entry 23, 1-(2-chlorophenyl)-5-(4-chlorophenyl)-2-methyl-N-(1-piperidinyl)-1H-pyrrole-3-carboxamide hydrochloride]
food consumption was reduced (relative to the food consumption observed for the vehicle control group): up to 25%

COc1ccc(-c2c(C)c(C(=O)NNc3ccc(C(F)(F)F)cc3)c(C)n2-c2ccccc2Cl)cc1.Cl [Entry 43, 1-(2-chlorophenyl)-5-(4-methoxyphenyl)-2,4-dimethyl-N′-[4-(trifluoromethyl)phenyl]-1H-pyrrole-3-carbohydrazide hydrochloride]
food consumption was reduced (relative to the food consumption observed for the vehicle control group): up to 35%
